Data on 8 molecules can be found in publication PMC3355305, “Localized Dimerization and Nucleoid Binding Drive Gradient Formation by the Bacterial Cell Division Inhibitor MipZ” (Molecular Cell, 2012).

Numbering of substitutions follows the chain as printed. Names may count otherwise.

The test system of series [1] is MipZ-D42A. Description: Transient kinetic analysis of mant nucleotide binding to MipZ D42A. Also noted: species or system Caulobacter crescentus. The conditions noted are these: for Kd: calculated KD = koff/kon. The text has this: (§1) Once released from the dimeric complex, MipZ monomers must undergo nucleotide exchange to enter the next reaction cycle (Figure 2A). To clarify the requirements for the exchange reaction, we studied the nucleotide binding kinetics of MipZ by monitoring its interaction with methylanthraniloyl (mant)-labeled ADP and ATP analogs (Figure S3). Since the mant group blocks dimer formation, our measurements specifically focused on the initial nucleotide-binding step without interference from subsequent reactions.
(§2) Figure S3. Steady-state and transient kinetic analysis of nucleotide binding to MipZ, Related to Table 2.
(§3) (A) Fluorescence emission spectra of mant-ATP. MipZ (1 µM) and/or mant-ATP (60 µM) were mixed in buffer BC containing no (+ Mg2+) or 10 mM (- Mg2+) EDTA. Emission spectra were recorded in a PC1 photon-counting spectrofluorimeter (ISS) using fluorescence resonance energy transfer (FRET) and an excitation wavelength of 290 nm.
(§4) (B) Association of MipZ with mant nucleotides.
(§5) (data not shown), necessitating the use of ADP and ATP analogues that carried a fluorescent methylanthraniloyl (mant) group attached to the 2'- or 3'-hydroxy group of the ribose moiety. Due to the bulkiness of the mant group and a critical role of these hydroxy groups in MipZ dimerization, the modified nucleotides are predicted to block dimer formation, consistent with their failure to be hydrolyzed by MipZ or mediate MipZ self-association in the SPR assay (data not shown). This circumstance allowed us to focus the measurements on the initial nucleotide binding step without interference from subsequent reactions.
(§6) Interaction of the mant group with the protein surface led to a marked increase in fluorescence (panel A). Consistent with the easy accessibility of the nucleotide-binding site and the lack of major conformational changes, the transients recorded after rapid mixing of MipZ with mant nucleotides could be fitted to single-exponential equations, indicating single-step binding reactions.
(§7) Shown is a typical curve representing the change in mant fluorescence upon binding of mant-ATP (30 µM) to MipZ (1 µM).
(§8) Fitting of the data yielded a pseudo-first order rate constant (kobs) of 4.7 s-1.
(§9) (C) Determination of the second-order association rate constants (kon). The pseudo-first order rate constants for the association of […]
(§10) determining the second-order rate constant of the association reaction. Shown is a representative graph in which the kobs values measured for mant-ATP were plotted against the corresponding mant-ATP concentrations. Fitting of the data to the linear function kobs=kon[mant-ATP]+koff yielded a value of 6.8 x 104 M-1s-1 for kon.
(§11) (D) Dissociation of mant nucleotides from MipZ. In order to determine the dissociation rate constants (koff), we monitored the displacement of mant-labeled nucleotides from MipZ by an excess of unlabeled nucleotide. All transients obtained could be fitted to single-exponential functions. Shown is a typical curve representing the change in mant fluorescence upon dissociation of mant-ATP (30 µM) from MipZ (1 µM) in the presence of 2 mM ATP. […]
(§12) […]
(§13) (Murshudov et al. 1997) for apo-MipZ in crystal form 2. Transient kinetic analysis The structure of apo-MipZ in crystal form 1 was solved Transient kinetic experiments were conducted at 30°C by multiple-wavelength anomalous diffraction (MAD), in a Hi-Tech Scientific SF-61MX stopped-flow spectro- […]

In another series the test system is MipZ G14V. The series is described as follows: Transient kinetic analysis of mant nucleotide binding to MipZ G14V. Also noted: species or system Caulobacter crescentus. The conditions noted are these: for Kd: calculated KD = koff/kon.
Excerpt: as §1, §2, §3, §4, §5, §6, §7, §8, §9, §10, §11, §12, §13

Another series deals with MipZ K13A. The series is described as follows: Transient kinetic analysis of mant nucleotide binding to MipZ K13A. Also noted: species or system Caulobacter crescentus. The conditions noted are these: for Kd: calculated KD = koff/kon.
Excerpt: as §1, §2, §3, §4, §5, §6, §7, §8, §9, §10, §11, §12, §13

For series [2], the system named is MipZ. Description: Transient kinetic (stopped-flow) analysis of mant nucleotide binding to wild-type MipZ. Also noted: species or system Caulobacter crescentus. The conditions noted are these: for kon: 30°C, buffer P; for Kd: calculated KD = koff/kon; for koff: displacement by excess unlabeled nucleotide.
Excerpt: as §1, §2, §3, §4, §5, §6, §7, §8, §9, §10, §11, §12, §13

The test system of another series is MipZ-K18Q. The series is described as follows: Transient kinetic analysis of mant nucleotide binding to MipZ K18Q. Also noted: species or system Caulobacter crescentus.
Excerpt: as §1, §2, §3
(B) Association of MipZ with mant nucleotides. […]
as §6
Shown is a typical curve representing the change in mant fluorescence upon binding of mant-ATP (30 µM) to MipZ (1 µM). […]
determining the second-order rate constant of the association reaction. Shown is a representative graph in which the kobs values measured for mant-ATP were plotted against the corresponding mant-ATP concentrations. […]
(D) Dissociation of mant nucleotides from MipZ. In order to determine the dissociation rate constants (koff), we monitored the displacement of mant-labeled nucleotides from MipZ by an excess of unlabeled nucleotide. […] Shown is a typical curve representing the change in mant fluorescence upon dissociation of mant-ATP (30 µM) from MipZ (1 µM) in the presence of 2 mM ATP. […]

Series [3] deals with the molecule itself. The series is described as follows: SPR; 1 mM ATP (printed 0.83 min-1).
Series [4] concerns the molecule itself. The series is described as follows: SPR; ATP; printed as 0.83 min-1.
Series [5] concerns the molecule itself. Description: SPR; 1 mM ATPγS (printed 0.18 min-1).
Series [6] concerns the molecule itself. The series is described as follows: SPR; 1 mM ATP (printed 0.067 min-1).
Series [7] deals with the molecule itself. Description: SPR; ATP; printed as 0.067 min-1.
Series [8] addresses T1, MipZ-D42A (Caulobacter crescentus, UniProt Q9A6C9 1-278, D42A).
T1 sequence: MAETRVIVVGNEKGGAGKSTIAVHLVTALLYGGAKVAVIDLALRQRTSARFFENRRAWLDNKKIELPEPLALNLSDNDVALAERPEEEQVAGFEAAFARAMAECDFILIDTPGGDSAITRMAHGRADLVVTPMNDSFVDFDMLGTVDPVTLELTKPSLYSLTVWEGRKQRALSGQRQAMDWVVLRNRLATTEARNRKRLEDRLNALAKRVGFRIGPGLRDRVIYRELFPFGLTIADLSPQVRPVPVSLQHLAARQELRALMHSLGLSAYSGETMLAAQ
The series is described as follows: SPR; ATP; SPR: buffer P2 or buffer BC (Mg2+-containing) with 2 mM nucleotide, composition not in material; EMSA: 1.25 mM nucleotide, 270 nM-5.6 uM protein, room temperature. The conditions noted are these: protein: recombinant; chain copies: 2; label: biotin; blunt.

The target in series [9] is T2, MipZ (Caulobacter crescentus, UniProt Q9A6C9 1-278).
T2 sequence: T1 sequence with A42D
The series is described as above. The conditions noted are these: protein: recombinant; chain copies: 2; label: biotin; blunt.

Series [10] concerns the target T2, MipZ. Description: SPR; 2 mM ATP, Mg2+; koff 1.5 min-1 (Fig S5C); SPR: buffer P2 or buffer BC (Mg2+-containing) with 2 mM nucleotide, composition not in material; EMSA: 1.25 mM nucleotide, 270 nM-5.6 uM protein, room temperature. The conditions noted are these: protein: recombinant; chain copies: 2; label: biotin (immobilized); blunt.
The target in another series is T3, ParB (Caulobacter crescentus, UniProt B8GW30 1-304).
T3 sequence: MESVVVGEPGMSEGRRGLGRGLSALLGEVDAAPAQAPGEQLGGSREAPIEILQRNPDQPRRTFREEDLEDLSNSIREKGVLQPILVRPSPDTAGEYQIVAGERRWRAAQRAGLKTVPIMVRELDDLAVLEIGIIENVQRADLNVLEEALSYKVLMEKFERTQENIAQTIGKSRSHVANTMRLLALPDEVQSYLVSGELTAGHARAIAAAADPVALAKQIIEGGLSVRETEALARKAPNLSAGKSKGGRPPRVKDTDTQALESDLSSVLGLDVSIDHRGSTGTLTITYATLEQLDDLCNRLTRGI
The series is described as follows: SPR; ParB alone; SPR: buffer P2 or buffer BC (Mg2+-containing) with 2 mM nucleotide, composition not in material; EMSA: 1.25 mM nucleotide, 270 nM-5.6 uM protein, room temperature. The conditions noted are these: protein: recombinant; tags: none (native ParB); chain copies: 2; label: biotin (immobilized); blunt.

Series [11] has as its target T1, MipZ-D42A. Description: SPR; ATP; slower dissociation than WT; SPR: buffer P2 or buffer BC (Mg2+-containing) with 2 mM nucleotide, composition not in material; EMSA: 1.25 mM nucleotide, 270 nM-5.6 uM protein, room temperature. The conditions noted are these: protein: recombinant; chain copies: 2; label: biotin (immobilized); blunt.

On to `CNc1ccccc1C(=O)O[C@H]1[C@@H](O)[C@H](n2cnc3c(N)ncnc32)O[C@@H]1COP(=O)(O)OP(=O)(O)O` [mant-ADP], for which, in the series with MipZ-D42A [1], the koff is 3.8 s⁻¹, the kon amounted to 55000 M⁻¹ s⁻¹ and the Kd is 69 µM. Further, in the series on MipZ G14V, the koff was determined as 0.9 s⁻¹, the kon worked out at 205000 M⁻¹ s⁻¹ and the Kd is 4.5 µM. In the series on MipZ K13A, the koff is 3.5 s⁻¹, the kon stood at 86000 M⁻¹ s⁻¹ and the Kd is 41 µM. In the series on MipZ [2] (WT MipZ), the “average lifetime (τ = 1/koff) of the MipZ⋅nucleotide complex” value is given as “about 0.3 s”, the kon turned out to be 118000 M⁻¹ s⁻¹, the Kd is 26 µM and the koff is 3.1 s⁻¹.

For the molecule `CNc1ccccc1C(=O)O[C@H]1[C@@H](O)[C@H](n2cnc3c(N)ncnc32)O[C@@H]1COP(=O)(O)OP(=O)(O)OP(=O)(O)O` [mant-ATP], the dissociation rate constant (koff) amounted to 4.5 s⁻¹ in the series on MipZ-D42A [1]; 0.2 s⁻¹ in the series on MipZ G14V; 7.5 s⁻¹ in the series on MipZ-K18Q; 2.1 s⁻¹ in the series on MipZ K13A; 2.1 s⁻¹ in the series on MipZ [2] (WT MipZ). The kon with MipZ-D42A [1] amounted to 78000 M⁻¹ s⁻¹; in the series with MipZ G14V it was 157000 M⁻¹ s⁻¹; with MipZ-K18Q, 62000 M⁻¹ s⁻¹; in the series on MipZ K13A, 56000 M⁻¹ s⁻¹; with MipZ [2] (WT MipZ), 68000 M⁻¹ s⁻¹. In addition, the Kd on MipZ-D42A [1] was 58 µM; at MipZ G14V, 1.3 µM; at MipZ-K18Q (calculated KD = koff/kon) it was 121 µM; on MipZ K13A, 38 µM; at MipZ [2] (WT MipZ), 31 µM. Further, in the series on MipZ [2] (mant-ATP 30 µM, MipZ 1 µM), the “pseudo-first order rate constant (kobs)” value came to 4.7 s⁻¹.

B1: MipZ (wild type), hexahistidine-tagged (natural protein)
chain: T1 sequence with A42D
For the molecule B1, the results for the koff in series [3], in [4] and in series [5] were 0.0138 s⁻¹, 0.0138 s⁻¹ and 0.003 s⁻¹, respectively.

B2: MipZ-D42A, hexahistidine-tagged (natural protein)
chain: T1 sequence
Regarding B2, the koff in series [6] and in series [7] was 0.00112 s⁻¹ each time.

B3: parSmt (dsDNA)
DNA 1: GAGGCTTGTTTGAGCTCAAACATCGG
DNA 2: CCGATGTTTGAGCTCAAACAAGCCTC
Consider B3, for which the binding result with MipZ-D42A [8] and in the series with MipZ [9] was “binds” in each case.

B4: parSWT (dsDNA)
DNA 1: GAGGCTTGTTTCACGTGAAACATCGG
DNA 2: CCGATGTTTCACGTGAAACAAGCCTC
With B4, the binding result with MipZ-D42A [8] and with MipZ [9] was “binds” throughout.

B5: ran1 (dsDNA)
DNA 1: GAGGCAGACTAGATCTTCTAGTTCGG
DNA 2: CCGAACTAGAAGATCTAGTCTGCCTC
As for B5, the binding result with MipZ-D42A [8] and with MipZ [9] was “binds” each time.

B6: ran2 (dsDNA)
DNA 1: GTCGACAGAGTTCGCTAACATCGAGC
DNA 2: GCTCGATGTTAGCGAACTCTGTCGAC
On to B6, for which the binding result with MipZ [10] was “binds”; with ParB it was “no binding”; with MipZ-D42A [11], “binds”.
